From US4707487A, “(4-imidazolyl)piperidines, the preparation thereof and their application in therapy” (Institut National de la Sante et de la Recherche Medicale …, priority 1985, dated 1987)

Assays:
[1] = target: T1, H3 self-receptors of rat brain (Rattus norvegicus, UniProt Q9QYN8); experiment: cell-based
Description: (§1) The method described by Arrang et al., (Nature 1983, 302: 838-837) is used on sections (0.3 mm thick) of cerebral cortex of male Wistar rats (180-200 g) (IFFA-CREDO, France).

[2] = system: rate of renewal of histamine in the synaptosomal fraction (P2) of rat cerebral cortex; experiment: Effects of H3 antagonists on the rate of renewal of cerebral histamine (depletion after synthesis blocking with α-FMH); assay type: in vivo, rat (male); set-up: Depletion by α-FMH: unit not given beside the values
[3] = Acute toxicity: mortality in mice after a single administration of increasing doses; details: mouse, in vivo, after one hour
Description: The determination of mortality in mice is observed folowing a single intravenous administration of increasing doses of compounds to be tested.
The L.D.50 for all the compounds studied is […] 100 mg/kg […]. For example, that for the derivative No. 1 is 100 mg/kg after one hour.

[4] = system: rate of renewal of histamine in the synaptosomal fraction (P2) of rat cerebral cortex; experiment: Effects of H3 antagonists on the rate of renewal of cerebral histamine (depletion after synthesis blocking with α-FMH); assay type: in vivo, rat (male); set-up: Depletion by α-FMH: unit not given beside the values; remark: listed apart in the source
Description: III. EFFECTS OF H3 A[…] THE RATE OF RENEWAL OF CEREBRAL HISTAMINE
Male rats weighing from 80 to 100 g simultaneously receive intraperitoneally α-fluoromethyl histidine and the compound to be tested, each at a dose of 20 mg/kg. One hour later, the animals are sacrificed and the cerebral cortex rapidly removed and homogenized in 10 volumes of 0.32 M sucrose. The homogenate thereby obtained is subjected to two successive centrifugations, the first at 10^4 g.min and second at 2×10^5 g.min to sediment the fraction enriched in synaptosomes (Whittaker, Michaelson and Kirkland, Biochem. J., 1967, 90, 293-305). After resuspension of this fraction in 10 volumes of 20 mM phosphate (K2 /K) buffer, PH 7.8, and treatment with ultrasound, an aliquot portion is frozen for subsequent assay of histidine decarboxylase activity (Baudry, Martres and Schwartz, J. Neurochem., 21, 1301-1309, 1973), and another portion is heated for 10 minutes at 95° C. and then centrifuged at 10^4 g.min. The endogenous histamine is determined in the supernatant by a radioenzymatic assay, which enables the histamine to be converted to tritiated N^w methylhistamine by means of an enzyme purified from rat kidney, histamine N-methyltransferase, and a tritiated methyl radical donor, S-adenosylmethionine. The N^w -methylhistamine thereby formed is selectively extracted in an alkaline medium into chloroform, before measurement of the tritiated product by liquid scintillation (Taylor and Snyder, J. Pharmacol. Exp. Ther., 137, 619-633, 1971).
In the controls, these rates correspond to 15 ng/g/h, compared with approximately 30 ng/g/h after treatment with an H3 -receptor antagonist (Table 3).

[5] = target: T1, H3 self-receptors of rat brain; experiment: Antagonism of histamine stimulation of the H3 receptors controlling the release of (3H)histamine induced by depolarization of sections of rat brain
Description: as §1

[6] = α-FMH 20 mg/kg + test compound 2 mg/kg
[7] = α-FMH 20 mg/kg + test compound 20 mg/kg
[8] = α-FMH 20 mg/kg + test compound 20 mg/kg, * p < 0.01 with respect to α-FMH alone
[9] = α-FMH 20 mg/kg + test compound 20 mg/kg, where marked *** p < 0.05 with respect to α-FMH
[10] = read-out: Apparent dissociation constant (Ki) as antagonist of histamine on the H3 self-receptors of rat brain
[11] = α-FMH alone 20 mg/kg, i.p., 1 h, rat cerebral cortex

T1 sequence (Q9QYN8 whole entry): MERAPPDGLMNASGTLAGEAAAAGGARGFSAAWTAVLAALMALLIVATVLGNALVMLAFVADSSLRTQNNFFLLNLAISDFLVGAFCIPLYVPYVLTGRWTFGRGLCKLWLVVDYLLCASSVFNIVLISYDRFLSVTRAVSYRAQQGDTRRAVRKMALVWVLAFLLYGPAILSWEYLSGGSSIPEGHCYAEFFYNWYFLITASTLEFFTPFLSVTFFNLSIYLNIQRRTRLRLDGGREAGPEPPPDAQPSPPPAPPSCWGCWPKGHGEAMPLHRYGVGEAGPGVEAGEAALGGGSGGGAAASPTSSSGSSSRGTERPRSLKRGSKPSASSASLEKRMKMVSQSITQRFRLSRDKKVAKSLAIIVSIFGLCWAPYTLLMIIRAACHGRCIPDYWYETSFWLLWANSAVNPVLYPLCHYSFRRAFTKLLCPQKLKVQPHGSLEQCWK

Q: For S=C(NC1CCCCC1)N1CCC(c2c[nH]cn2)CC1 [Example 1], which Ki [1] is on record?
A: The Ki was 5 nM.

Q: And the “histamine level in the synaptosomal fraction” value ([2]; administered alone at a dose of 20 mg/kg)?
A: Its value is “significant fall in the histamine level in the synaptosomal fraction”.

Q: And the “Depletion by α-FMH” value ([2]; test compound alone 20 mg/kg, no α-FMH)?
A: Its value is 12.3 ± 3.7.

Q: And the “Histamine (level in the synaptosomal fraction P2)” value ([2]; test compound alone 20 mg/kg, no α-FMH, ** p < 0.03 with the untreated animals)?
A: Its value is 39.3 ± 2.1.

Q: And the “Depletion by α-FMH” value [2, 6]?
A: Its value is 28.4 ± 4.0.

Q: What about the “Depletion by α-FMH, change (in brackets)” value [2, 6] of the same compound?
A: The value was “+96%”.

Q: And the “Histamine (level in the synaptosomal fraction P2)” value ([2]; α-FMH 20 mg/kg + test compound 2 mg/kg, * p < 0.01 with respect to α-FMH alone)?
A: Its value is 23.2 ± 2.7.

Q: What about the LD50 at 1 h [3] of the same compound?
A: The LD50 at 1 h was 100 mg/kg.

Q: What about the “Depletion by α-FMH, change (in brackets)” value [4, 7] of the same compound?
A: The value was “+74%”.

Q: What about the “Histamine (level in the synaptosomal fraction P2)” value [4, 8] of the same compound?
A: The value was 26.4 ± 1.4.

Q: And the “Depletion by α-FMH” value [4, 9]?
A: The value was 25.2 ± 3.3.

Q: With O=C(NC1CCCCC1)N1CCC(c2cn(C(=O)NC3CCCCC3)cn2)CC1 [Example 2] as the compound, how does the Ki [5] read?
A: Its Ki is 26 nM.

Q: What does the source list for O=C(NC1CCCCC1)N1CCC(c2c[nH]cn2)CC1 [Example 3]?
A: Depletion by α-FMH, change (in brackets) [4, 7]: +84%; Histamine (level in the synaptosomal fraction P2) [4, 8]: 24.9 ± 1.2; Depletion by α-FMH [4, 9]: 26.7 ± 3.2; Ki [5]: 41 nM

Q: Which Ki [5] does the source give for O=C(c1ccc(N2CCC(c3c[nH]cn3)CC2)cc1)C1CC1 [Example 4] here?
A: The Ki was 37 nM.

Q: For S=C(NC12CC3CC(CC(C3)C1)C2)N1CCC(c2c[nH]cn2)CC1 [Example 7], which Ki [1] is on record?
A: Its Ki is 30 nM.

Q: For O=C(Nc1ccccc1)N1CCC(c2c[nH]cn2)CC1 [Example 9], which Ki [1] is on record?
A: The Ki was 170 nM.

Q: With O=C(Nc1cccc(F)c1)N1CCC(c2c[nH]cn2)CC1 [Example 10] as the compound, how does the Ki [1] read?
A: The Ki was 23 nM.

Q: With Cc1cccc(NC(=O)N2CCC(c3c[nH]cn3)CC2)c1 [Example 11] as the compound, how does the Ki [1] read?
A: The Ki was 52 nM.

Q: With Cc1cccc(NC(=O)N2CCC(c3cn(C(=O)Nc4cccc(C)c4)cn3)CC2)c1 [Example 16] as the compound, how does the Ki [1] read?
A: Its Ki is 84 nM.

Q: For CC(NC(=O)N1CCC(c2cn(C(=O)NC(C)c3ccccc3)cn2)CC1)c1ccccc1 (stereo not shown) [Example 20], which Ki [1] is on record?
A: The Ki was 22 nM.

Q: Which Ki [1] does the source give for Cc1[nH]cnc1C1CCN(CCCn2c(=O)[nH]c3ccccc32)CC1 [Example 39] here?
A: Its Ki is 500 nM.

Q: With c1ccc(OCCN2CCC(c3c[nH]cn3)CC2)cc1 [Example 40] as the compound, how does the Ki [5] read?
A: The Ki was 67 nM.

Q: With CC(NC(=O)N1CCC(c2c[nH]cn2)CC1)c1ccccc1 (stereo not shown) [Example 56] as the compound, how does the Ki [1] read?
A: Its Ki is 10 nM.

Q: With CC(NC(=N)N1CCC(c2c[nH]cn2)CC1)C1CC1 (stereo not shown) [Example 57] as the compound, how does the Ki [5, 10] read?
A: Its Ki is 12 nM.

Q: For S=C(NC1CCCCC1)N1CCCC(c2c[nH]cn2)C1 (stereo not shown) [Example 58], which Ki [5, 10] is on record?
A: The Ki was 40 nM.

Q: With NCCc1c[nH]cn1 [histamine, reference compound] as the compound, how does the inhibition at 1 µM ([5]; read-out: inhibition of (3H)histamine release by exogenous histamine) read?
A: Its inhibition at 1 µM is about 60%.

Q: With N[C@@](CF)(Cc1c[nH]cn1)C(=O)O [α-FMH, α-fluoromethylhistidine, reference compound] as the compound, how does the “Depletion by α-FMH” value [4, 11] read?
A: The value was 14.5 ± 4.0.

Q: What about the “Histamine (level in the synaptosomal fraction P2)” value [4, 11] of the same compound?
A: Its value is 37.1 ± 2.7.
